Assay results reported in patent publication US10538567B2, “Compounds as peptidic trigonal GLP1/glucagon/GIP receptor agonists” (priority 2016, dated 2020).
Numbered stars: 1 amine (or outer) side, 2 acyl side, 3 side chain; on linkers, the order of the positions; unused ones are H or OH. Square brackets hold non-standard residues; d marks the D form. Side chains are listed from the residue outwards. Peptide text beside a SMILES is read from it. * marks the point of attachment. γGlu = O=C(O)[C@H](CCC(=O)[*:2])N[*:1]; Palmitoyl = CCCCCCCCCCCCCCCC(=O)*; Aib = CC(C)(N)C(=O)O

Key:
[1] = Dynamic light scattering, hydrodynamic radius as surrogate for DLS interaction parameter kD; type: physicochemical; conditions: for Delta Rh [nm] = Rh5 − Rh1: DLS buffer system A pH 4.5; for Rh1 [nm] c = 1 mg/ml / Rh5 [nm] c = 5 mg/ml: hydrodynamic radius, DLS buffer system A pH 4.5, method C, 25° C.
Description: A monochromatic and coherent light beam (laser) is used to illuminate the liquid sample. Dynamic Light Scattering (DLS) measures light scattered from particles (1 nm≤radius≤1 μm) that undergo Brownian motion. This motion is induced by collisions between the particles and solvent molecules that themselves are moving due to their thermal energy. The diffusional motion of the particles results in temporal fluctuations of the scattered light [Pecora, R. Dynamic Light Scattering: Applications of Photon Correlation Spectroscopy, Plenum Press, 1985].
The scattered light intensity fluctuations are recorded and transformed into an autocorrelation function. By fitting the autocorrelation curve to an exponential function, the diffusion coefficient D of the particles in solution can be derived. The diffusion coefficient is then used to calculate the hydrodynamic radius Rh (or apparent Stokes radius) through the Stokes-Einstein equation assuming spherical particles. This calculation is defined in ISO 13321 and ISO 22412 [International Standard ISO13321 Methods for Determination of Particle Size Distribution Part 8: Photon Correlation Spectroscopy, International Organisation for Standardisation (ISO) 1996; International Standard ISO22412 Particle Size Analysis—Dynamic Light Scattering, International Organisation for Standardisation (ISO) 2008].
For every peptide solution, the hydrodynamic radius Rh and the diffusion constant D (related via the Stokes-Einstein equation) were determined as an average over triplicates. Both parameters were determined at different peptide concentrations (e.g., Rh1 and D1: 1 mg/ml and Rh5 and D5: 5 mg/ml) in the same buffer system. The difference of these parameters between low and high peptide concentration is a surrogate for the DLS interaction parameter kD. Rh5<Rh1 or D5>D1 correspond to kD>0 and therefore to repulsive inter-particle interactions that result in improved physical (or colloidal) stability.
DLS buffer system A) 25 mM acetate buffer pH 4.5, 3 mg/mL L-Methionine, 2.7 mg/mL m-cresol, 18 mg/mL Glycerol 85%
DLS Method C: DLS measurements were performed on a DynaPro Plate Reader II (Wyatt Technology, Santa Barbara, Calif., US) and using one of the following black, low volume, and non-treated plates: polystyrene 384 assay plate with clear bottom (Corning, N.Y., US), polystyrene 96 assay plate with clear bottom (Corning, N.Y., US), cyclo olefin polymer (COP) 384 assay plate with clear bottom (Aurora, Mont., US), or polystyrene 384 assay plate with clear bottom (Greiner Bio-One, Germany). The data were processed with the Dynamics software provided by Wyatt Technology. Parameters of the particle size distribution were determined with non-negatively constrained least squares (NNLS) methods using DynaLS algorithms. Measurements were taken at 25° C. with an 830 nm laser light source at an angle of 158°.
The hydrodynamic radius Rh of peptide samples was determined at different peptide concentrations (1 mg/ml and 5 mg/ml) in DLS buffer system A using DLS method C as described in Methods as surrogate for the DLS interaction parameter kD.

human glucagon receptor = molecular target: T1, human glucagon receptor (Homo sapiens, UniProt P47871); assay: cAMP response (HTRF) of HEK-293 cells stably expressing human glucagon receptor; type: cell-based; conditions: Table 8; read-out: EC50 hGlucagon R
T1 construct: expressed in transfected cells; host or cells: HEK-293
Procedure: cAMP content of cells was determined using a kit from Cisbio Corp. (cat. no. 62AM4PEJ) based on HTRF (Homogenous Time Resolved Fluorescence). For preparation, cells were split into T175 culture flasks and grown overnight to near confluency in medium (DMEM/10% FBS). Medium was then removed and cells washed with PBS lacking calcium and magnesium, followed by proteinase treatment with accutase (Sigma-Aldrich cat. no. A6964). Detached cells were washed and resuspended in assay buffer (1×HBSS; 20 mM HEPES, 0.1% BSA, 2 mM IBMX) and cellular density determined. They were then diluted to 400000 cells/ml and 25 μl-aliquots dispensed into the wells of 96-well plates. For measurement, 25 μl of test compound in assay buffer was added to the wells, followed by incubation for 30 minutes at room temperature.
Potencies of peptidic compounds at the GLP-1, glucagon and GIP receptors were determined by exposing cells expressing human glucagon receptor (hGlucagon R), human GIP receptor (hGIP-R) or human GLP-1 receptor (hGLP-1 R) to the listed compounds at increasing concentrations and measuring the formed cAMP as described in Methods.

human GIP receptor = molecular target: T2, human GIP receptor (Homo sapiens, UniProt P48546); assay: cAMP response (HTRF) of HEK-293 cells stably expressing human GIP receptor; type: cell-based; conditions: Table 8; read-out: EC50 hGIP R
T2 construct: expressed in transfected cells; host or cells: HEK-293
T2 sequence (P48546 22-466): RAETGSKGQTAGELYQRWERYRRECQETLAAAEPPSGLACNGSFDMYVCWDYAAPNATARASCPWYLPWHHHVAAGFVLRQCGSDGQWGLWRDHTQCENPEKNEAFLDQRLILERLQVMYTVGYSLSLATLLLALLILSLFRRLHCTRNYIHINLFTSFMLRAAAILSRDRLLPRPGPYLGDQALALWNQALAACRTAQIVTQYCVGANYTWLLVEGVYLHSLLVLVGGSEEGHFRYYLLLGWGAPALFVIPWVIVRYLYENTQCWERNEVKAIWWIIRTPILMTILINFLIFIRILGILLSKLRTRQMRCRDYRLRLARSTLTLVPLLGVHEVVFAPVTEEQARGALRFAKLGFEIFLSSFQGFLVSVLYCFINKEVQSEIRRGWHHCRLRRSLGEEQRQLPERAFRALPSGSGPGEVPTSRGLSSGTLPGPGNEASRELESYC
Summary of the method: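 HEK-293 cells stably expressing human GIP receptor were incubated with compound for 30 min at room temperature in HBSS/20 mM HEPES/0.1% BSA with 2 mM IBMX. cAMP was measured by HTRF (665/616 nm ratio) after 1 h with detection reagents in lysis buffer; EC50 is the concentration giving 50% of maximal response.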

T1 sequence (P47871 26-477): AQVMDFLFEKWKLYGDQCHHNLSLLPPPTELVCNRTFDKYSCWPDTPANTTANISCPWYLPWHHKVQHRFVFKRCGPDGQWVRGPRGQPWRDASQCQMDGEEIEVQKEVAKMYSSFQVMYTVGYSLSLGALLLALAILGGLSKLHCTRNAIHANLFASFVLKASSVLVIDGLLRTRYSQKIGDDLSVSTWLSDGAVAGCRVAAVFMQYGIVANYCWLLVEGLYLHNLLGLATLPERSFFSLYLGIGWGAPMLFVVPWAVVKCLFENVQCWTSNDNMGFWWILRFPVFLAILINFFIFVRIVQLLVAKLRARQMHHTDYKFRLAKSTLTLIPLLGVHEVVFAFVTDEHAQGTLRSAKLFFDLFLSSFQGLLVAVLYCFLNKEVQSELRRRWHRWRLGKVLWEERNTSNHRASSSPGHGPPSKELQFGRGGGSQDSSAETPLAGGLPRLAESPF

With `CCCCCCCCCCCCCCCC(=O)N[C@@H](CCC(=O)N[C@@H](CCC(=O)NCCCC[C@H](NC(=O)[C@H](CC(C)C)NC(=O)[C@H](CCCCN)NC(=O)[C@H](CO)NC(=O)[C@H](CC(C)C)NC(=O)[C@H](CC(=O)O)NC(=O)[C@H](CO)NC(=O)[C@@H](NC(=O)[C@H](Cc1ccccc1)NC(=O)[C@@H](NC(=O)CNC(=O)[C@H](Cc1c[nH]cn1)NC(=O)C(C)(C)NC(=O)[C@@H](N)Cc1c[nH]cn1)[C@@H](C)O)[C@@H](C)O)C(=O)N[C@@H](CCC(=O)O)C(=O)N[C@@H](CCC(=O)O)C(=O)N[C@@H](CCC(N)=O)C(=O)N[C@@H](CCCNC(=N)N)C(=O)N[C@@H](CCC(N)=O)C(=O)N[C@@H](CCCCN)C(=O)N[C@@H](CCC(=O)O)C(=O)N[C@@H](Cc1ccccc1)C(=O)N[C@H](C(=O)N[C@@H](CCC(=O)O)C(=O)N[C@@H](Cc1c[nH]c2ccccc12)C(=O)N[C@@H](CC(C)C)C(=O)N[C@@H](CCCCN)C(=O)N[C@@H](C)C(=O)NCC(=O)NCC(=O)N1CCC[C@H]1C(=O)N1CCC[C@H]1C(=O)N[C@@H](CO)C(=O)NC(C)(C)C(=O)N[C@@H](CCCCN)C(=O)N1CCC[C@H]1C(=O)N1CCC[C@H]1C(=O)N1CCC[C@H]1C(=O)N[C@@H](CCCCN)C(N)=O)[C@@H](C)CC)C(=O)O)C(=O)O` [SEQ ID NO: 8, H-Aib-H-G-T-F-T-S-D-L-S-K-L-K[gGlu-gGlu-Palm]-E-E-Q-R-Q-K-E-F-I-E-W-L-K-A-G-G-P-P-S-Aib-K-P-P-P-K-NH2] the “Delta Rh [nm] = Rh5 − Rh1” value [1] was −0.4 nm, the “Rh1 [nm] c = 1 mg/ml” value [1] was 3.0 nm and the “Rh5 [nm] c = 5 mg/ml” value [1] was 2.6 nm. For the same compound, the EC50 (human glucagon receptor) was 2 pM.
Compound `CCCCCCCCCCCCCCCC(=O)N[C@@H](CCC(=O)N[C@@H](CCC(=O)NCCCC[C@H](NC(=O)[C@H](CC(C)C)NC(=O)[C@H](CCCCN)NC(=O)[C@H](CO)NC(=O)[C@H](CC(C)C)NC(=O)[C@H](CC(=O)O)NC(=O)[C@H](CO)NC(=O)[C@@H](NC(=O)[C@H](Cc1ccccc1)NC(=O)[C@@H](NC(=O)CNC(=O)[C@H](Cc1c[nH]cn1)NC(=O)C(C)(C)NC(=O)[C@@H](N)Cc1c[nH]cn1)[C@@H](C)O)[C@@H](C)O)C(=O)N[C@@H](CCC(=O)O)C(=O)N[C@@H](CCC(=O)O)C(=O)N[C@@H](CCC(N)=O)C(=O)N[C@@H](CCCNC(=N)N)C(=O)N[C@@H](CCC(N)=O)C(=O)NC(C)(C)C(=O)N[C@@H](CCC(=O)O)C(=O)N[C@@H](Cc1ccccc1)C(=O)N[C@H](C(=O)N[C@@H](CCC(=O)O)C(=O)N[C@@H](Cc1c[nH]c2ccccc12)C(=O)N[C@@H](CC(C)C)C(=O)N[C@@H](CCCCN)C(=O)N[C@@H](C)C(=O)N[C@H](C)C(=O)NCC(=O)N1CCC[C@H]1C(=O)N1CCC[C@H]1C(=O)N[C@@H](CO)C(=O)NC(C)(C)C(=O)N[C@@H](CCCCN)C(=O)N1CCC[C@H]1C(=O)N1CCC[C@H]1C(=O)N1CCC[C@H]1C(=O)N[C@@H](CCCCN)C(N)=O)[C@@H](C)CC)C(=O)O)C(=O)O` [SEQ ID NO: 11, H-Aib-H-G-T-F-T-S-D-L-S-K-L-K[gGlu-gGlu-Palm]-E-E-Q-R-Q-Aib-E-F-I-E-W-L-K-A-dAla-G-P-P-S-Aib-K-P-P-P-K-NH2] (H-H[Aib]HGTFTSDLSKLK([γGlu-γGlu-Palmitoyl])EEQRQ[Aib]EFIEWLKA[dA]GPPS[Aib]KPPPK-NH2) has an EC50 (human glucagon receptor) of 2.1 pM and an EC50 (human GIP receptor) of 1.5 pM.
For `CCCCCCCCCCCCCCCC(=O)N[C@@H](CCC(=O)N[C@@H](CCC(=O)NCCCC[C@H](NC(=O)[C@H](CC(C)C)NC(=O)[C@H](CCCCN)NC(=O)[C@H](CO)NC(=O)[C@H](CC(C)C)NC(=O)[C@H](CC(=O)O)NC(=O)[C@H](CO)NC(=O)[C@@H](NC(=O)[C@H](Cc1ccccc1)NC(=O)[C@@H](NC(=O)CNC(=O)[C@H](Cc1c[nH]cn1)NC(=O)C(C)(C)NC(=O)[C@@H](N)Cc1c[nH]cn1)[C@@H](C)O)[C@@H](C)O)C(=O)N[C@@H](CCC(=O)O)C(=O)N[C@@H](CCC(=O)O)C(=O)N[C@@H](CCC(N)=O)C(=O)N[C@@H](CCCNC(=N)N)C(=O)N[C@@H](CCC(N)=O)C(=O)NC(C)(C)C(=O)N[C@@H](CCC(=O)O)C(=O)N[C@@H](Cc1ccccc1)C(=O)N[C@H](C(=O)N[C@@H](CCC(=O)O)C(=O)N[C@@H](Cc1c[nH]c2ccccc12)C(=O)N[C@@H](CC(C)C)C(=O)N[C@@H](CCCCN)C(=O)N[C@@H](C)C(=O)NCC(=O)NCC(=O)N[C@@H](Cc1c[nH]cn1)C(=O)N1CCC[C@H]1C(=O)N[C@@H](CO)C(=O)NC(C)(C)C(=O)N[C@@H](CCCCN)C(=O)N1CCC[C@H]1C(=O)N1CCC[C@H]1C(=O)N1CCC[C@H]1C(=O)N[C@@H](CCCCN)C(N)=O)[C@@H](C)CC)C(=O)O)C(=O)O` [SEQ ID NO: 12, H-Aib-H-G-T-F-T-S-D-L-S-K-L-K[gGlu-gGlu-Palm]-E-E-Q-R-Q-Aib-E-F-I-E-W-L-K-A-G-G-H-P-S-Aib-K-P-P-P-K-NH2], the “Delta Rh [nm] = Rh5 − Rh1” value [1] was −0.3 nm, the “Rh1 [nm] c = 1 mg/ml” value [1] was 2.9 nm and the “Rh5 [nm] c = 5 mg/ml” value [1] was 2.6 nm. For the same compound, the EC50 (human glucagon receptor) was 2 pM and the EC50 (human GIP receptor) was 1.9 pM.
With `CCCCCCCCCCCCCCCC(=O)N[C@@H](CCC(=O)N[C@@H](CCC(=O)NCCCC[C@H](NC(=O)[C@H](CC(C)C)NC(=O)[C@H](CCCCN)NC(=O)[C@H](CO)NC(=O)[C@H](CC(C)C)NC(=O)[C@H](CC(=O)O)NC(=O)[C@H](CO)NC(=O)[C@@H](NC(=O)[C@H](Cc1ccccc1)NC(=O)[C@@H](NC(=O)CNC(=O)[C@H](Cc1c[nH]cn1)NC(=O)C(C)(C)NC(=O)[C@@H](N)Cc1c[nH]cn1)[C@@H](C)O)[C@@H](C)O)C(=O)N[C@@H](CCC(=O)O)C(=O)N[C@@H](CCC(=O)O)C(=O)N[C@@H](CCC(N)=O)C(=O)N[C@@H](CCCNC(=N)N)C(=O)N[C@@H](CCC(N)=O)C(=O)NC(C)(C)C(=O)N[C@@H](CCC(=O)O)C(=O)N[C@@H](Cc1ccccc1)C(=O)N[C@H](C(=O)N[C@@H](CCC(=O)O)C(=O)N[C@@H](Cc1c[nH]c2ccccc12)C(=O)N[C@@H](CC(C)C)C(=O)N[C@@H](CCCCN)C(=O)N[C@@H](C)C(=O)N[C@H](C)C(=O)NCC(=O)N[C@@H](Cc1c[nH]cn1)C(=O)N1CCC[C@H]1C(=O)N[C@@H](CO)C(=O)NC(C)(C)C(=O)N[C@@H](CCCCN)C(=O)N1CCC[C@H]1C(=O)N1CCC[C@H]1C(=O)N1CCC[C@H]1C(=O)N[C@@H](CCCCN)C(N)=O)[C@@H](C)CC)C(=O)O)C(=O)O` [SEQ ID NO: 13, H-Aib-H-G-T-F-T-S-D-L-S-K-L-K[gGlu-gGlu-Palm]-E-E-Q-R-Q-Aib-E-F-I-E-W-L-K-A-dAla-G-H-P-S-Aib-K-P-P-P-K-NH2] (H-H[Aib]HGTFTSDLSKLK([γGlu-γGlu-Palmitoyl])EEQRQ[Aib]EFIEWLKA[dA]GHPS[Aib]KPPPK-NH2) the “Delta Rh [nm] = Rh5 − Rh1” value [1] was −0.3 nm, the “Rh1 [nm] c = 1 mg/ml” value [1] was 2.8 nm and the “Rh5 [nm] c = 5 mg/ml” value [1] was 2.5 nm. It also gave an EC50 (human glucagon receptor) of 2.1 pM.
